According to patent publication EP4790048A1, “S1PR4 REGULATOR COMPOUND FOR AUTOIMMUNE DISEASE TREATMENT AND APPLICATION THEREOF” (Shengyuan Zetong (Shanghai) Pharmaceutical Co., Ltd, priority 2023, dated 2025):
Numbering of substitutions follows the chain as printed. Where two headings read alike, the source gives them in different places.

How the values were obtained:
S1PR4 = target: T1, S1PR4 (Homo sapiens, UniProt O95977); test: S1PR4 internalization and recovery test in S1PR4-293T cells; assay type: cell-based; conditions: 1 µM, 37 °C, 1.5 hours; detected immediately, 5 hours or 20 hours after treatment
T1 construct: expressed in transfected cells; host or cells: 293T
T1 sequence (O95977 1-384): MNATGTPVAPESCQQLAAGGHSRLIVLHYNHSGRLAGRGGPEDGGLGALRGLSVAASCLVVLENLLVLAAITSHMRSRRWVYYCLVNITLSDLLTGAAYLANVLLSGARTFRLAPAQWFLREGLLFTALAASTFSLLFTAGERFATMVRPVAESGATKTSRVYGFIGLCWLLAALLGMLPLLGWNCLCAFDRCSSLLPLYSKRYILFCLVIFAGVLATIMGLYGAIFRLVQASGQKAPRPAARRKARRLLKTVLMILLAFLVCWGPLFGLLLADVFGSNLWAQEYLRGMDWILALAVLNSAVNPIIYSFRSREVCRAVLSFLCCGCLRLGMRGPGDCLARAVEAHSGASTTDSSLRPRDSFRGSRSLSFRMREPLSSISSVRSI
Experimental: Therefore, the recovery degree of S1PR4 after internalization caused by Compound 30 was evaluated, and the recovery effect following receptor internalization caused by Compound 30 was assessed in cells with high S1PR4 expression.

hS1P4-R-79C = target: T2, hS1P4-R-79C (Homo sapiens, UniProt O95977, R79C); test: Tango β-arrestin recruitment luciferase assay, Tango-hS1P4-R-79C-CHO (S1PR4 mutant); assay type: cell-based; conditions: 20 h drug treatment
T2 construct: expressed in transfected cells; host or cells: CHO
T2 sequence (O95977 1-384 R79C): T1 sequence (O95977 1-384) with R79C
Description: (§1) The Tango assay detects ligand-dependent GPCR activity through the interaction between β-arrestin and GPCRs. […] The NTEV fragment and the tetracycline transactivator (tTA), an artificial transcription factor, are fused at the C-terminus of the GPCR, while the CTEV fragment is fused to human β-arrestin 2. To enhance the stability of the interaction between GPCR and β-arrestin, a short sequence from the C-terminus of the human arginine vasopressin receptor 2 (V2 tail) is inserted between the GPCR and NTEV. The V2 tail contains multiple GRK phosphorylation sites, which strengthen β-arrestin binding upon phosphorylation. The CTEV fragment carries the stabile point mutation S219P and is truncated at residue 221 to remove the autoinhibitory C-terminal tail. Meanwhile, β-arrestin 2 is truncated to lack the entire C-terminal tail (residues 383-410 deleted). This truncation confers robust stimulus-dependent receptor desensitization, thereby improving detection sensitivity compared with wild-type β-arrestin 2. The UAS reporter construct consists of upstream activating sequence (UAS) elements, a minimal CMV promoter, and a tTA-dependent luciferase reporter gene. Therefore, constructing Tango cells requires the co-transfection of the above three plasmids into host cells. Upon GPCR activation and β-arrestin recruitment, the TEV enzyme at the β-arrestin terminus cleaves tTA from the GPCR C-terminus. The released tTA initiates tTA-dependent luciferase transcription, and compound activity is ultimately determined by measuring luminescence intensity.
(§2) • 1) Tango cell line from was digested from the culture dish respectively. After cell counting, the cells were plated at a density of 10,000 cells per well with […] into a white opaque 96-well plate (add 60 µL D'Hanks to the surrounding wells), and incubated overnight (20 h) in a 5% CO2 incubator at 37°C. The cell density will reach approximately 90% the next day. • 2) After 20 h, 30 µL of serially diluted compound solution was added to each well. The control group was supplemented with 30 µL F12K complete medium. Each group had three replicate wells. • 3) Samples were collected after 20 h of drug treatment.
(§3) (All compounds were tested at a final concentration of 45 µM, with 9 serial dilutions at 5-fold intervals. 1 µM BAF-312 was used as the positive control for S1PR1, and 25 µM BAF-312 was used as the positive control for S1PR4.

[1] = Pharmacokinetic property testing in rats; assay type: in vivo, SD rats; conditions: for Tmax: 3 per group
Description: In the structure-activity relationship discussion, the inventors obtained key compound 22. Based on compound 22, the polar head of the compound was modified as chiral pyrrolidine carboxylic acid, yielding selective S1PR4 agonists 30 and 67. We conducted pharmacokinetic property analyses on compounds 22, 30, and 67, respectively.

hS1P1 = target: T3, hS1P1 (Homo sapiens, UniProt P21453); test: Tango β-arrestin recruitment luciferase assay, Tango-hS1P1-CHO; assay type: cell-based
T3 construct: expressed in transfected cells; host or cells: CHO
Description: as §1, §2, §3

hS1P4 = target: T4, hS1P4 (Homo sapiens, UniProt O95977); test: Tango β-arrestin recruitment luciferase assay, Tango-hS1P4-CHO; assay type: cell-based; conditions: S1PR4; Tango-S1PR4-CHO-K1 cells; mean ± SD; read-out: EC50
T4 construct: expressed in transfected cells; host or cells: CHO
T4 sequence (O95977 1-384): T1 sequence (O95977 1-384)
Description: as §1, §2, §3

S1PR3 = target: T5, S1PR3 (Homo sapiens, UniProt Q99500); test: β-arrestin recruitment, PathHunter CHO-K1-S1PR3 cells; assay type: cell-based; conditions: mean ± SD, read-out: EC50
T5 construct: expressed in transfected cells

[2] = Sprague-Dawley, rat, in vivo, IV (1 mg/kg), male SD rats
[3] = Sprague-Dawley, rat, in vivo, PO (10 mg/kg), male SD rats
[4] = β-arrestin recruitment, 20 h drug treatment, top 45 µM, 9 serial 5-fold dilutions, positive control 1 µM BAF-312, read-out: Tango-hS1P1-CHO EC50

T3 sequence (P21453 whole entry): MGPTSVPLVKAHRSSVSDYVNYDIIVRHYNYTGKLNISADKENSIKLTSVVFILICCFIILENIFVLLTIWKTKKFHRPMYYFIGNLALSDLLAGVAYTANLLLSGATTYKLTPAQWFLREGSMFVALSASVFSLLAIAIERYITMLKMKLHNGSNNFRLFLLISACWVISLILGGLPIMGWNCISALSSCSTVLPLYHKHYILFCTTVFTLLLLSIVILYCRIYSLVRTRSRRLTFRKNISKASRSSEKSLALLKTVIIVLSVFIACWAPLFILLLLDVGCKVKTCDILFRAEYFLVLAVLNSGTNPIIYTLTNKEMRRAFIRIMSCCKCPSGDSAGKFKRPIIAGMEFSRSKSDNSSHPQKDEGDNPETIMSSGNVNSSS
T5 sequence (Q99500 whole entry, species assumed): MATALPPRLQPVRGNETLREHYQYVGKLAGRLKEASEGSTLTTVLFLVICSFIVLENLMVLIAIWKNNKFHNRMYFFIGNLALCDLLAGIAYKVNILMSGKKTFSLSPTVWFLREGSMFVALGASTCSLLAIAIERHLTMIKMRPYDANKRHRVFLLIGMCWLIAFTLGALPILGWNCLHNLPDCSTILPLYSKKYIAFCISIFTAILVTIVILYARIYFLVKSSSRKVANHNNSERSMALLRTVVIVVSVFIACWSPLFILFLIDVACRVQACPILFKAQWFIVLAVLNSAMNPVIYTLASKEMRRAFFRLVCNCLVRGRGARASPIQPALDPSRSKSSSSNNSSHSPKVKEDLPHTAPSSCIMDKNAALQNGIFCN

CCc1cc(/C(C)=N/OCc2ccc(C3CCCCC3)c(C(F)(F)F)c2)ccc1CN1CC(C(=O)O)C1 [BAF312]
S1PR4 internalization (expression of S1PR4 receptor on the cell surface) (S1PR4): cannot induce S1PR4 internalization

CCc1cc(/C(C)=N/OCc2ccc(-c3ccccc3)c(C)c2)ccc1CN1CC(C(=O)O)C1 [Compound 22, (E)-1-(2-ethyl-4-(1-((2-methyl-[1,1'-biphenyl]-4-yl)methoxy)imino)ethyl)azetidine-3-carboxylic acid]
EC50 (hS1P4-R-79C): 27 nM
CL_obs ([1]; IV (1 mg/kg), male SD rats): 34.7 ± 3.17 mL/min/kg
Vss_obs ([1]; IV (1 mg/kg), male SD rats): 0.88 ± 0.07 L/kg
CL_obs ([1]; PO (10 mg/kg), male SD rats): 148 ± 64.3 mL/min/kg
Vss_obs ([1]; PO (10 mg/kg), male SD rats): 27.73 ± 16.85 L/kg
AUC(0-t) [1, 2]: 476 ± 43.6 ng·h/mL
Cmax [1, 2]: 995 ± 53.2 ng/mL
half-life [1, 2]: 25.2 ± 1.8 min
Tmax [1, 2]: 4.8 min
AUC(0-t) [1, 3]: 1120 ± 400 ng·h/mL
Cmax [1, 3]: 544 ± 221 ng/mL
half-life [1, 3]: 130 ± 57.6 min
Tmax [1, 3]: 49.8 ± 17.4 min
bioavailability ([1]; male, Sprague-Dawley, rat, in vivo, oral, 10 mg/kg): 23.5%
F (%) ([1]; oral bioavailability, PO 10 mg/kg vs IV 1 mg/kg, male SD rats): 23.5%

CCc1cc(/C(C)=N/OCc2ccc(-c3ccccc3)c(C)c2)ccc1CN1CC[C@@H](C(=O)O)C1 [Compound 29]
EC50 (hS1P1; [4]): 169 nM
EC50 (hS1P4-R-79C): 87.2 nM

CCc1cc(/C(C)=N/OCc2ccc(-c3ccccc3)c(C)c2)ccc1CNCCC(=O)O [Compound 31]
EC50 (hS1P1; [4]): 128 nM
EC50 (hS1P4-R-79C): 73.1 nM

CCCCCCCCCCCCC/C=C/[C@@H](O)[C@@H](N)COP(=O)(O)O [Compound S1P, Sphingosine-1-phosphate, reference compound]
S1PR4 internalization (expression of S1PR4 receptor on the cell surface) (S1PR4): can induce S1PR4 internalization, with receptor expression recovering after 20 hours
EC50 (hS1P1; S1PR1, Tango-S1PR1-CHO-K1 cells, mean ± SD, read-out: EC50): 8.52 ± 1.06 nM
EC50 (hS1P4): 100 ± 21.9 nM
EC50 (S1PR3): 20.6 ± 3.37 nM
